Data on 3 compounds can be found in ChEMBL document CHEMBL3046379, “Differential activity against aphid settling of flavones obtained from Clytostoma callistegioides (Bignoniaceae)” (2013).

What all share (format): functional
Assay [1] has as its system Myzus persicae. The assay is described as follows: Anti-settling activity against Myzus persicae (green peach aphid) in compound treated bell pepper leaf assessed as preference index at 50 ug/cm'2 measured 24 hr.
The test system of assay [2] is Rhopalosiphum padi. Description: Anti-settling activity against Rhopalosiphum padi in compound treated barley [Hordeum vulgare L. (Poaceae)] foliage leaf assessed as aphids settled on leaf at 50 ug/cm'2 measured 24 hr (reference value: 55 +/- 4 to 90 +/- 3%).
Assay [3] concerns Myzus persicae. Description: Anti-settling activity against Myzus persicae (green peach aphid) in compound treated bell pepper leaf assessed as aphids settled on leaf at 50 ug/cm'2 measured 24 hr (reference value: 52 +/- 7 to 75 +/- 4%).
In assay [4] the test system is Rhopalosiphum padi. The assay is described as follows: Anti-settling activity against Rhopalosiphum padi in compound treated barley [Hordeum vulgare L. (Poaceae)] foliage leaf assessed as preference index at 50 ug/cm'2 measured 24 hr.

As for `COc1c(O)cc(O)c2c(=O)cc(-c3ccc(O)cc3)oc12` [4'-HYDROXYWOGONIN], the Ratio in the assay with Myzus persicae [1] is on record as 0; in the assay on Rhopalosiphum padi [4], 0.1. Besides, the Activity in the assay on Rhopalosiphum padi [2] amounted to 44%; with Myzus persicae [3], 48%.
Consider `COc1ccc(-c2cc(=O)c3c(O)cc(O)cc3o2)cc1` [ACACETIN], for which the results for the Ratio with Myzus persicae [1] and in the assay on Rhopalosiphum padi [4] were 0.1 and 0.3, respectively. The values for the Activity in the assay with Rhopalosiphum padi [2] and with Myzus persicae [3] were 34% and 44%, respectively.
In the case of `COc1ccc(-c2cc(=O)c3c(O)cc(O)c(OC)c3o2)cc1` [GALANGUSTIN], the figures for the Ratio with Myzus persicae [1] and in the assay on Rhopalosiphum padi [4] were 0.4 and 0.8, respectively. In addition, the Activity with Rhopalosiphum padi [2] was 10%; in the assay on Myzus persicae [3] it was 29%.
